Results from ChEMBL document CHEMBL1149623, “Identification of antibacterial and antiviral activities of novel fused 1,2,4-triazine esters” (2007).

Assays:
[1] = Cytotoxicity against monkey GMK cells at 25 ug/mL after 24 hrs by MTT assay; assay type: functional, Chlorocebus aethiops
HEK293 [2] = assay: Cytotoxicity against human HEK293 cells at 10 ug/mL after 24 hrs by MTT assay; assay type: functional
HEK293 [3] = assay: Cytotoxicity against human HEK293 cells at 200 ug/mL after 96 hrs by MTT assay; assay type: functional
[4] = Cytotoxicity against monkey GMK cells at 100 ug/mL after 96 hrs by MTT assay; assay type: functional, Chlorocebus aethiops
[5] = Cytotoxicity against monkey GMK cells at 200 ug/mL after 96 hrs by MTT assay; assay type: functional, Chlorocebus aethiops
HEK293 [6] = assay: Cytotoxicity against human HEK293 cells at 25 ug/mL after 24 hrs by MTT assay; assay type: functional
[7] = Cytotoxicity against monkey GMK cells at 50 ug/mL after 96 hrs by MTT assay; assay type: functional, Chlorocebus aethiops
HEK293 [8] = assay: Cytotoxicity against human HEK293 cells at 2.5 ug/mL after 96 hrs by MTT assay; assay type: functional
[9] = Cytotoxicity against monkey GMK cells at 25 ug/mL after 72 hrs by MTT assay; assay type: functional, Chlorocebus aethiops
[10] = Cytotoxicity against monkey GMK cells at 100 ug/mL after 48 hrs by MTT assay; assay type: functional, Chlorocebus aethiops
HEK293 [11] = assay: Cytotoxicity against human HEK293 cells at 200 ug/mL after 120 hrs by MTT assay; assay type: functional
HEK293 [12] = assay: Cytotoxicity against human HEK293 cells at 2.5 ug/mL after 120 hrs by MTT assay; assay type: functional
Echovirus E9 [13] = assay: Antiviral activity against Human echovirus 9 in GMK cells assessed as virus titre at 200 ug/mL after 1 hr; assay type: functional
HEK293 [14] = assay: Cytotoxicity against human HEK293 cells at 10 ug/mL after 120 hrs by MTT assay; assay type: functional
[15] = Cytotoxicity against monkey GMK cells at 100 ug/mL after 72 hrs by MTT assay; assay type: functional, Chlorocebus aethiops
HEK293 [16] = assay: Cytotoxicity against human HEK293 cells at 100 ug/mL after 24 hrs by MTT assay; assay type: functional
HEK293 [17] = assay: Cytotoxicity against human HEK293 cells at 200 ug/mL after 48 hrs by MTT assay; assay type: functional
Human adenovirus 5 [18] = assay: Antiviral activity against Human adenovirus 5 in HEK293 cells assessed as virus titre at 200 ug/mL after 1 hr; assay type: functional
HEK293 [19] = assay: Cytotoxicity against human HEK293 cells at 10 ug/mL after 72 hrs by MTT assay; assay type: functional
[20] = Cytotoxicity against monkey GMK cells at 5 ug/mL after 24 hrs by MTT assay; assay type: functional, Chlorocebus aethiops
[21] = Cytotoxicity against monkey GMK cells at 10 ug/mL after 96 hrs by MTT assay; assay type: functional, Chlorocebus aethiops
[22] = Cytotoxicity against monkey GMK cells at 200 ug/mL after 24 hrs by MTT assay; assay type: functional, Chlorocebus aethiops
[23] = Cytotoxicity against monkey GMK cells at 200 ug/mL after 72 hrs by MTT assay; assay type: functional, Chlorocebus aethiops
HEK293 [24] = assay: Cytotoxicity against human HEK293 cells at 10 ug/mL after 96 hrs by MTT assay; assay type: functional
[25] = Cytotoxicity against monkey GMK cells at 2.5 ug/mL after 120 hrs by MTT assay; assay type: functional, Chlorocebus aethiops
HEK293 [26] = assay: Cytotoxicity against human HEK293 cells at 50 ug/mL after 72 hrs by MTT assay; assay type: functional
Echovirus E9 [27] = assay: Antiviral activity against Human echovirus 9 in GMK cells assessed as virus titre at 50 ug/mL after 1 hr; assay type: functional
HEK293 [28] = assay: Cytotoxicity against human HEK293 cells at 25 ug/mL after 72 hrs by MTT assay; assay type: functional
[29] = Cytotoxicity against monkey GMK cells at 10 ug/mL after 72 hrs by MTT assay; assay type: functional, Chlorocebus aethiops
HEK293 [30] = assay: Cytotoxicity against human HEK293 cells at 50 ug/mL after 48 hrs by MTT assay; assay type: functional
[31] = Cytotoxicity against monkey GMK cells at 10 ug/mL after 24 hrs by MTT assay; assay type: functional, Chlorocebus aethiops
[32] = Cytotoxicity against monkey GMK cells at 200 ug/mL after 48 hrs by MTT assay; assay type: functional, Chlorocebus aethiops
[33] = Cytotoxicity against monkey GMK cells at 50 ug/mL after 24 hrs by MTT assay; assay type: functional, Chlorocebus aethiops
[34] = Cytotoxicity against monkey GMK cells at 10 ug/mL after 120 hrs by MTT assay; assay type: functional, Chlorocebus aethiops
HEK293 [35] = assay: Cytotoxicity against human HEK293 cells at 25 ug/mL after 120 hrs by MTT assay; assay type: functional
HEK293 [36] = assay: Cytotoxicity against human HEK293 cells at 2.5 ug/mL after 24 hrs by MTT assay; assay type: functional
HEK293 [37] = assay: Cytotoxicity against human HEK293 cells at 100 ug/mL after 72 hrs by MTT assay; assay type: functional
[38] = Cytotoxicity against monkey GMK cells at 25 ug/mL after 96 hrs by MTT assay; assay type: functional, Chlorocebus aethiops
[39] = Cytotoxicity against monkey GMK cells at 5 ug/mL after 72 hrs by MTT assay; assay type: functional, Chlorocebus aethiops
[40] = Cytotoxicity against monkey GMK cells at 50 ug/mL after 72 hrs by MTT assay; assay type: functional, Chlorocebus aethiops
HEK293 [41] = assay: Cytotoxicity against human HEK293 cells at 2.5 ug/mL after 48 hrs by MTT assay; assay type: functional
HEK293 [42] = assay: Cytotoxicity against human HEK293 cells at 50 ug/mL after 120 hrs by MTT assay; assay type: functional
HEK293 [43] = assay: Cytotoxicity against human HEK293 cells at 25 ug/mL after 96 hrs by MTT assay; assay type: functional
HEK293 [44] = assay: Cytotoxicity against human HEK293 cells at 5 ug/mL after 96 hrs by MTT assay; assay type: functional
HEK293 [45] = assay: Cytotoxicity against human HEK293 cells at 50 ug/mL after 24 hrs by MTT assay; assay type: functional
[46] = Cytotoxicity against monkey GMK cells at 2.5 ug/mL after 24 hrs by MTT assay; assay type: functional, Chlorocebus aethiops
[47] = Cytotoxicity against monkey GMK cells at 2.5 ug/mL after 96 hrs by MTT assay; assay type: functional, Chlorocebus aethiops
[48] = Cytotoxicity against monkey GMK cells at 5 ug/mL after 48 hrs by MTT assay; assay type: functional, Chlorocebus aethiops
Human adenovirus 5 [49] = assay: Antiviral activity against Human adenovirus 5 in HEK293 cells assessed as virus titre at 100 ug/mL after 1 hr; assay type: functional
HEK293 [50] = assay: Cytotoxicity against human HEK293 cells at 10 ug/mL after 48 hrs by MTT assay; assay type: functional
Echovirus E9 [51] = assay: Antiviral activity against Human echovirus 9 in GMK cells assessed as virus titre at 100 ug/mL after 1 hr; assay type: functional
[52] = Cytotoxicity against monkey GMK cells at 2.5 ug/mL after 48 hrs by MTT assay; assay type: functional, Chlorocebus aethiops
Human adenovirus 5 [53] = assay: Antiviral activity against Human adenovirus 5 in HEK293 cells assessed as virus titre at 50 ug/mL after 1 hr; assay type: functional
[54] = Cytotoxicity against monkey GMK cells at 10 ug/mL after 48 hrs by MTT assay; assay type: functional, Chlorocebus aethiops
HEK293 [55] = assay: Cytotoxicity against human HEK293 cells at 5 ug/mL after 72 hrs by MTT assay; assay type: functional
HEK293 [56] = assay: Cytotoxicity against human HEK293 cells at 25 ug/mL after 48 hrs by MTT assay; assay type: functional
[57] = Cytotoxicity against monkey GMK cells at 100 ug/mL after 24 hrs by MTT assay; assay type: functional, Chlorocebus aethiops

## CCOC(=O)CC1NN=C2N(CCN2c2ccc(C)cc2)C1=O (centres undefined)
[1]
  Activity: 100%
HEK293 [2]
  Activity: 100%
HEK293 [3]
  Activity: 15%
[4]
  Activity: 70%
[5]
  Activity: 0%
HEK293 [6]
  Activity: 100%
[7]
  Activity: 70%
HEK293 [8]
  Activity: 100%
[9]
  Activity: 85%
[10]
  Activity: 80%
HEK293 [11]
  Activity: 15%
HEK293 [12]
  Activity: 100%
Echovirus E9 [13]
  TCID50: 3.67 mL⁻¹
HEK293 [14]
  Activity: 100%
[15]
  Activity: 70%
HEK293 [16]
  Activity: 70%
HEK293 [17]
  Activity: 20%
Human adenovirus 5 [18]
  TCID50: 2.5 mL⁻¹
HEK293 [19]
  Activity: 100%
[20]
  Activity: 100%
[21]
  Activity: 95%
[22]
  Activity: 0%
[23]
  Activity: 0%
HEK293 [24]
  Activity: 100%
[25]
  Activity: 100%
HEK293 [26]
  Activity: 80%
Echovirus E9 [27]
  TCID50: 3.67 mL⁻¹
HEK293 [28]
  Activity: 100%
[29]
  Activity: 100%
HEK293 [30]
  Activity: 80%
[31]
  Activity: 100%
[32]
  Activity: 0%
[33]
  Activity: 90%
[34]
  Activity: 90%
HEK293 [35]
  Activity: 95%
HEK293 [36]
  Activity: 100%
HEK293 [37]
  Activity: 70%
[38]
  Activity: 80%
[39]
  Activity: 100%
[40]
  Activity: 80%
HEK293 [41]
  Activity: 100%
HEK293 [42]
  Activity: 75%
HEK293 [43]
  Activity: 95%
HEK293 [44]
  Activity: 100%
HEK293 [45]
  Activity: 90%
[46]
  Activity: 100%
[47]
  Activity: 100%
[48]
  Activity: 100%
Human adenovirus 5 [49]
  TCID50: 2.5 mL⁻¹
HEK293 [50]
  Activity: 100%
Echovirus E9 [51]
  TCID50: 3.67 mL⁻¹
[52]
  Activity: 100%
Human adenovirus 5 [53]
  TCID50: 2.5 mL⁻¹
[54]
  Activity: 100%
HEK293 [55]
  Activity: 100%
HEK293 [56]
  Activity: 100%
[57]
  Activity: 90%

## CCOC(=O)CC1NN=C2N(CCN2c2ccc(Cl)cc2)C1=O (centres undefined)
[1]
  Activity: 100%
HEK293 [2]
  Activity: 100%
HEK293 [3]
  Activity: 25%
[4]
  Activity: 100%
[5]
  Activity: 95%
HEK293 [6]
  Activity: 100%
[7]
  Activity: 100%
HEK293 [8]
  Activity: 100%
[9]
  Activity: 100%
[10]
  Activity: 100%
HEK293 [11]
  Activity: 20%
HEK293 [12]
  Activity: 100%
Echovirus E9 [13]
  TCID50: 3.5 mL⁻¹
HEK293 [14]
  Activity: 100%
[15]
  Activity: 100%
HEK293 [16]
  Activity: 95%
HEK293 [17]
  Activity: 30%
Human adenovirus 5 [18]
  TCID50: 3.5 mL⁻¹
HEK293 [19]
  Activity: 100%
[20]
  Activity: 100%
[21]
  Activity: 100%
[22]
  Activity: 100%
[23]
  Activity: 100%
HEK293 [24]
  Activity: 100%
[25]
  Activity: 100%
HEK293 [26]
  Activity: 100%
Echovirus E9 [27]
  TCID50: 4.23 mL⁻¹
HEK293 [28]
  Activity: 100%
[29]
  Activity: 100%
HEK293 [30]
  Activity: 100%
[31]
  Activity: 100%
[32]
  Activity: 100%
[33]
  Activity: 100%
[34]
  Activity: 100%
HEK293 [35]
  Activity: 100%
HEK293 [36]
  Activity: 100%
HEK293 [37]
  Activity: 70%
[38]
  Activity: 100%
[39]
  Activity: 100%
[40]
  Activity: 100%
HEK293 [41]
  Activity: 100%
HEK293 [42]
  Activity: 100%
HEK293 [43]
  Activity: 100%
HEK293 [44]
  Activity: 100%
HEK293 [45]
  Activity: 100%
[46]
  Activity: 100%
[47]
  Activity: 100%
[48]
  Activity: 100%
Human adenovirus 5 [49]
  TCID50: 3.5 mL⁻¹
HEK293 [50]
  Activity: 100%
Echovirus E9 [51]
  TCID50: 3.67 mL⁻¹
[52]
  Activity: 100%
Human adenovirus 5 [53]
  TCID50: 3.5 mL⁻¹
[54]
  Activity: 100%
HEK293 [55]
  Activity: 100%
HEK293 [56]
  Activity: 100%
[57]
  Activity: 100%
